The values that follow come from ChEMBL document CHEMBL1151861, “Synthesis of novel nitric oxide (NO)-releasing esters of timolol” (Bioorg Med Chem Lett, 2009).

Series [1] can be described thus: Chemical stability in pH 5.7 buffer at room temperature after 1 day. In kind it is physicochemical. The note with it: for remaining at 24 h: pH 5.7 buffer, pH 5.7, read-out: Stability.
Series [2] in a line: Chemical stability in pH 5.7 buffer at room temperature after 1 week. Conditions: read-out: Stability. In kind it is physicochemical.
A short description of series [3]: Chemical stability in pH 5.7 buffer at room temperature after 4 weeks. In kind it is physicochemical. The note with it: read-out: Stability.
Series [4] in a line: Stability in rabbit corneal homogenate at 37 degC assessed as half life of timolol release. The class given is ADME, tissue-based, Oryctolagus cuniculus, Cornea. Conditions: in vitro.
Series [5] can be described thus: Chemical stability in pH 5.7 buffer at room temperature after 8 weeks. In kind it is physicochemical. The note with it: read-out: Stability.
The nature of series [6]: Chemical stability in pH 5.7 buffer at room temperature after 12 weeks. The class given is physicochemical. Conditions: read-out: Stability.
Series [7] can be described thus: Vasodilation activity in rabbit aortic rings assessed as relaxation of 3 uM methoxamine-induced contraction in absence of guanylate cyclase inhibitor 1H-[1,2,4]oxadiazolo[4,3-a]quinoxalin-1-one. The class given is functional, tissue-based. Conditions: Oryctolagus cuniculus, Aorta.
The nature of series [8]: Vasodilation activity in rabbit aortic rings assessed as relaxation of 3 uM methoxamine-induced contraction in presence of 10 uM guanylate cyclase inhibitor 1H-[1,2,4]oxadiazolo[4,3-a]quinoxalin-1-one. The class given is functional, tissue-based. The note with it: Oryctolagus cuniculus, Aorta.

Structures are written as SMILES.

`COc1cc(OCCO[N+](=O)[O-])ccc1C(=O)O[C@@H](CNC(C)(C)C)COc1nsnc1N1CCOCC1`: the remaining at 24 h in series [1] stood at 98.6%. Further, the remaining at 168 h in series [2] amounted to 96.3%. The remaining at 672 h in series [3] was 84.4%.

For the compound `COc1ccc(CO[N+](=O)[O-])cc1C(=O)O[C@@H](CNC(C)(C)C)COc1nsnc1N1CCOCC1.O=C(O)/C=C\C(=O)O`, the Stability result in series [1] (buffer, pH 5.7, 24 h) was “Unstable”. For the same compound, the t1/2 in series [4] was 4.62 h.

Consider `CC(C)(C)NC[C@@H](COc1nsnc1N1CCOCC1)OC(=O)c1ccccc1OCCO[N+](=O)[O-].O=C(O)/C=C\C(=O)O`, for which the remaining at 24 h in series [1] worked out at 96.5%. In addition, the remaining at 168 h in series [2] came to 82.5%. Moreover, the t1/2 in series [4] is 4.3 h.

For the compound `COc1cccc(OCCO[N+](=O)[O-])c1C(=O)O[C@@H](CNC(C)(C)C)COc1nsnc1N1CCOCC1.O=C(O)/C=C\C(=O)O`, in series [1], the remaining at 24 h was 99.8%. The remaining at 168 h in series [2] stood at 99.3%. The remaining at 672 h in series [3] was 98.3%. In series [5], the remaining at 1344 h is 98.3%. The remaining at 2016 h in series [6] amounted to 98.3%. Also, the t1/2 in series [4] was above 23.33 h.

For `COc1cc(COCCO[N+](=O)[O-])ccc1C(=O)O[C@@H](CNC(C)(C)C)COc1nsnc1N1CCOCC1`, the remaining at 24 h in series [1] stood at 96.7%. Moreover, the remaining at 168 h in series [2] stood at 94.9%.

For `COc1cc(COC(=O)CCCCCO[N+](=O)[O-])cc(OC)c1C(=O)O[C@@H](CNC(C)(C)C)COc1nsnc1N1CCOCC1.O=C(O)/C=C\C(=O)O`, in series [1], the remaining at 24 h was 100%. Further, the remaining at 168 h in series [2] came to 100%. Also, the remaining at 672 h in series [3] worked out at 98%. Moreover, the remaining at 1344 h in series [5] turned out to be 96.8%. Further, the remaining at 2016 h in series [6] came out at 93.2%. Further, the t1/2 in series [4] was above 23.33 h.

With `COc1cc(COC(=O)COCCOCCO[N+](=O)[O-])c(C(=O)O[C@@H](CNC(C)(C)C)COc2nsnc2N2CCOCC2)c(OC)c1.O=C(O)/C=C\C(=O)O`, in series [1], the remaining at 24 h stood at 98.8%. Also, in series [2], the remaining at 168 h was found to be 93%. Besides, in series [4], the t1/2 is 0.167 h. The results for the EC50 in series [7] and in series [8] were 15.5 µM and 32.7 µM, respectively.

Regarding `COc1cccc(C(=O)O[C@@H](CNC(C)(C)C)COc2nsnc2N2CCOCC2)c1OCCO[N+](=O)[O-].O=C(O)/C=C\C(=O)O`, the remaining at 24 h in series [1] is 96%. Also, the remaining at 168 h in series [2] is 72.1%. Besides, the t1/2 in series [4] was above 23.33 h.

As for `COc1cc(COC(=O)CCCO[N+](=O)[O-])c(C(=O)O[C@@H](CNC(C)(C)C)COc2nsnc2N2CCOCC2)c(OC)c1.O=C(O)/C=C\C(=O)O`, the remaining at 24 h in series [1] was 96.5%. In addition, the remaining at 168 h in series [2] stood at 96.5%. For the same compound, the remaining at 672 h in series [3] was 90.6%. For the same compound, the t1/2 in series [4] stood at 0.2 h.

On to `COc1cc(COC(=O)C(C)(C)CO[N+](=O)[O-])c(C(=O)O[C@@H](CNC(C)(C)C)COc2nsnc2N2CCOCC2)c(OC)c1.O=C(O)/C=C\C(=O)O`, for which the remaining at 24 h in series [1] worked out at 98.4%. Also, the remaining at 168 h in series [2] amounted to 99.1%. Moreover, in series [3], the remaining at 672 h is 94.7%. Further, in series [5], the remaining at 1344 h came out at 94.9%. Moreover, the remaining at 2016 h in series [6] turned out to be 93.2%. Also, in series [4], the t1/2 was determined as 2 h.

As for `COc1cc(COC(=O)CCOCC(CO[N+](=O)[O-])O[N+](=O)[O-])c(C(=O)O[C@@H](CNC(C)(C)C)COc2nsnc2N2CCOCC2)c(OC)c1.O=C(O)/C=C\C(=O)O` (some centres not stated), the remaining at 24 h in series [1] was determined as 97.3%. Moreover, the remaining at 168 h in series [2] is 96.7%. In addition, the remaining at 672 h in series [3] was 95.8%. Besides, the remaining at 1344 h in series [5] came out at 91.7%. In addition, in series [6], the remaining at 2016 h was found to be 86%. In addition, the t1/2 in series [4] came out at 0.667 h.

`COc1cc(OCCO[N+](=O)[O-])cc(C)c1C(=O)O[C@@H](CNC(C)(C)C)COc1nsnc1N1CCOCC1.O=C(O)/C=C\C(=O)O`: the remaining at 24 h in series [1] worked out at 101%. The remaining at 168 h in series [2] was 101%. In addition, the remaining at 672 h in series [3] was 100%. Further, in series [5], the remaining at 1344 h came out at 99.6%. Also, the remaining at 2016 h in series [6] is 98.5%. The t1/2 in series [4] is above 23.33 h.

Turning to `CC(C)(C)NC[C@@H](COc1nsnc1N1CCOCC1)OC(=O)c1ccc(OCCO[N+](=O)[O-])cc1OCCO[N+](=O)[O-]`, the remaining at 24 h in series [1] came to 97.9%. Further, the remaining at 168 h in series [2] stood at 84.2%.

With `COc1cc(COC(=O)CCCCCO[N+](=O)[O-])c(C(=O)O[C@@H](CNC(C)(C)C)COc2nsnc2N2CCOCC2)c(OC)c1.O=C(O)/C=C\C(=O)O`, the remaining at 24 h in series [1] was 99.6%. Also, in series [2], the remaining at 168 h was determined as 99.6%. Besides, the remaining at 672 h in series [3] worked out at 97.7%. Besides, the remaining at 1344 h in series [5] is 92.8%. Further, the t1/2 in series [4] was found to be 0.167 h. For the same compound, the EC50 in series [7] is 6.7 µM; in series [8], 56.3 µM.

On to `CC(C)(C)NC[C@@H](COc1nsnc1N1CCOCC1)OC(=O)c1ccccc1`, for which the remaining at 24 h in series [1] amounted to 96%. Moreover, the remaining at 168 h in series [2] worked out at 74.8%.

`O=[N+]([O-])O[C@@H]1CO[C@H]2[C@@H]1OC[C@@H]2O` [ISOSORBIDE MONONITRATE]: the EC50 in series [7] was 9.6 µM; in series [8], above 100 µM.

`CC(C)(C)NC[C@H](O)COc1nsnc1N1CCOCC1` [TIMOLOL]: the EC50 in series [7] worked out at 28.8 µM; in series [8] it was 36.5 µM.

What is called EC50 is the concentration needed to bring the measured effect to its halfway point.
